{"source": "patent US20100305143A1", "about": "“PYRROLOPYRIMIDINE COMPOUNDS” (VERNALIS (R & D) LTD., priority 2007, published 2010)", "note": "pIC50: −log10 of the molar value.", "data": [{"biological_target": "T1, human adenosine A2B receptors (Homo sapiens, UniProt P29275)", "T1 construct": "expressed in transfected cells", "T1 sequence (P29275 1-332)": "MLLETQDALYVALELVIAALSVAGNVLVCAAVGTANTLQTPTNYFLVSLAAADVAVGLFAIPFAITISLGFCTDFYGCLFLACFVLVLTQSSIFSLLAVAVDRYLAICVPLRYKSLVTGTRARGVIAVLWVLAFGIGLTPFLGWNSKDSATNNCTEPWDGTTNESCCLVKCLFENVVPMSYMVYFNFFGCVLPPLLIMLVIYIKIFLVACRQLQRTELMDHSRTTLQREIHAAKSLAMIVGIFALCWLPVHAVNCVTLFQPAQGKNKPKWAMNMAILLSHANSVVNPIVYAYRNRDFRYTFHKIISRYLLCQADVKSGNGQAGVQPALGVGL", "assay": "FLIPR calcium flux assay in cells expressing human adenosine A2B receptors", "format": "cell-based", "details": "expressed human adenosine A2B receptors in mammalian cell lines, from dose response curves, read-out: Activity (IC50 activity range)", "procedure": "The use of a Fluorometric Imaging Plate Reader (FLIPR) to measure calcium flux in Adenosine-receptor expressing cells is a well-established technique. In this assay calcium flux is triggered by receptor activation and measured through the fluorescence of an incorporated calcium-sensitive dye. The potencies shown were determined using expressed human adenosine A2B receptors in mammalian cell lines. Selectivity values were obtained by using mammalian cell lines expressing the human adenosine A1, A2A and A3 receptors. Compound potency was determined from dose response curves and are reported as IC50 values.", "values": [{"smiles": "Cn1ccc2c(C(=O)c3cccs3)nc(NCc3cccnc3)nc21", "note": "[Example 6, {7-Methyl-2-[(pyridin-3-ylmethyl)-amino]-7H-pyrrolo[2,3d]pyrimidin-4-yl}-thiophen-2-yl-methanone]", "pIC50": "> 6.30"}, {"smiles": "CC(Nc1nc(C(=O)c2cccs2)c2ccn(C)c2n1)c1cccnc1", "note": "(centres unmarked) [Example 7, [7-Methyl-2-(1-pyridin-3-yl-ethylamino)-7H-pyrrolo[2,3-d]pyrimidin-4-yl]-thiophen-2-yl-methanone]", "pIC50": "> 6.30"}, {"smiles": "Cc1ccc(C(=O)c2nc(NCc3cccnc3)nc3c2ccn3C)s1", "note": "[Example 8, {7-Methyl-2-[(pyridin-3-ylmethyl)-amino]-7H-pyrrolo[2,3-d]pyrimidin-4-yl}-(5-methyl-thiophen-2-yl)-methanone]", "pIC50": "> 6.30"}, {"smiles": "Cc1ccc(C(=O)c2nc(NCc3ccccn3)nc3c2ccn3C)s1", "note": "[Example 9, {7-Methyl-2-[(pyridin-2-ylmethyl)-amino]-7H-pyrrolo[2,3-d]pyrimidin-4-yl}-(5-methyl-thiophen-2-yl)-methanone]", "pIC50": "> 6.30"}, {"smiles": "Cc1ccc(C(=O)c2nc(NCc3ccncc3)nc3c2ccn3C)s1", "note": "[Example 10, {7-Methyl-2-[(pyridin-4-ylmethyl)-amino]-7H-pyrrolo[2,3-d]pyrimidin-4-yl}-(5-methyl-thiophen-2-yl)-methanone]", "pIC50": "< 6.30"}, {"smiles": "O=C(c1cccs1)c1nc(Cl)nc2[nH]ccc12", "note": "[Example 13, (2-Chloro-7H-pyrrolo[2,3-d]pyrimidin-4-yl)-thiophen-2-yl-methanone]", "pIC50": "< 6.30"}, {"smiles": "O=C(c1cccs1)c1nc(NCc2ccccn2)nc2[nH]ccc12", "note": "[Example 14, {2-[(Pyridin-2-ylmethyl)-amino]-7H-pyrrolo[2,3-d]pyrimidin-4-yl}-thiophen-2-yl-methanone]", "pIC50": "< 6.30"}, {"smiles": "O=C(c1cccs1)c1nc(Cl)nc2c1ccn2Cc1ccccc1", "note": "[Example 17, (7-Benzyl-2-chloro-7H-pyrrolo[2,3-d]pyrimidin-4-yl)-thiophen-2-yl-methanone]", "pIC50": "< 6.30"}, {"smiles": "O=C(c1cccs1)c1nc(NCc2cccnc2)nc2c1ccn2Cc1ccccc1", "note": "[Example 18, {7-Benzyl-2-[(pyridin-3-ylmethyl)-amino]-7H-pyrrolo[2,3-d]pyrimidin-4-yl}-thiophen-2-yl-methanone]", "pIC50": "< 6.30"}, {"smiles": "CCCCCn1ccc2c(C(=O)c3cccs3)nc(NCc3cccnc3)nc21", "note": "[Example 19, {7-Pentyl-2-[(pyridin-3-ylmethyl)-amino]-7H-pyrrolo[2,3-d]pyrimidin-4-yl}-thiophen-2-yl-methanone]", "pIC50": "< 6.30"}, {"smiles": "O=C(c1cccs1)c1nc(NCc2cccnc2)nc2c1ccn2CC1CC1", "note": "[Example 20, {7-Cyclopropylmethyl-2-[(pyridin-3-ylmethyl)-amino]-7H-pyrrolo[2,3-d]pyrimidin-4-yl}-thiophen-2-yl-methanone]", "pIC50": "< 6.30"}, {"smiles": "CCCn1ccc2c(C(=O)c3cccs3)nc(NCc3cccnc3)nc21", "note": "[Example 21, {7-Propyl-2-[(pyridin-3-ylmethyl)-amino]-7H-pyrrolo[2,3-d]pyrimidin-4-yl}-thiophen-2-yl-methanone]", "pIC50": "< 6.30"}, {"smiles": "Cn1cc(Br)c2c(C(=O)c3cccs3)nc(NCc3cccnc3)nc21", "note": "[Example 25, {5-Bromo-7-methyl-2-[(pyridin-3-ylmethyl)-amino]-7H-pyrrolo[2,3-d]pyrimidin-4-yl}-thiophen-2-yl-methanone]", "pIC50": "< 6.30"}, {"smiles": "Cn1cc(-c2ccccc2)c2c(C(=O)c3cccs3)nc(NCc3cccnc3)nc21", "note": "[Example 26, {7-Methyl-5-phenyl-2-[(pyridin-3-ylmethyl)-amino]-7H-pyrrolo[2,3-d]pyrimidin-4-yl}-thiophen-2-yl-methanone]", "pIC50": "< 6.30"}, {"smiles": "Cn1cc(-c2ccc(S(C)(=O)=O)cc2)c2c(C(=O)c3cccs3)nc(NCc3cccnc3)nc21", "note": "[Example 27, {5-(4-Methanesulfonyl-phenyl)-7-methyl-2-[(pyridin-3-ylmethyl)-amino]-7H-pyrrolo[2,3-d]pyrimidin-4-yl}-thiophen-2-yl-methanone]", "pIC50": "< 6.30"}, {"smiles": "COc1ccc(-c2cn(C)c3nc(NCc4cccnc4)nc(C(=O)c4cccs4)c23)cc1", "note": "[Example 28, {5-(4-Methoxy-phenyl)-7-methyl-2-[(pyridin-3-ylmethyl)-amino]-7H-pyrrolo[2,3-d]pyrimidin-4-yl}-thiophen-2-yl-methanone]", "pIC50": "< 6.30"}, {"smiles": "COc1ccccc1-c1cn(C)c2nc(NCc3cccnc3)nc(C(=O)c3cccs3)c12", "note": "[Example 29, {5-(2-Methoxy-phenyl)-7-methyl-2-[(pyridin-3-ylmethyl)-amino]-7H-pyrrolo[2,3-d]pyrimidin-4-yl}-thiophen-2-yl-methanone]", "pIC50": "< 6.30"}, {"smiles": "Cn1c(Br)cc2c(C(=O)c3cccs3)nc(Cl)nc21", "note": "[Example 35, (6-Bromo-2-chloro-7-methyl-7H-pyrrolo[2,3-d]pyrimidin-4-yl)-thiophen-2-yl-methanone]", "pIC50": "> 6.30"}, {"smiles": "Cn1c(Cl)cc2c(C(=O)c3cccs3)nc(Cl)nc21", "note": "[Example 39, (2,6-Dichloro-7-methyl-7H-pyrrolo[2,3-d]pyrimidin-4-yl)-thiophen-2-yl-methanone]", "pIC50": "> 6.30"}, {"smiles": "Cn1c(Cl)cc2c(C(=O)c3cccs3)nc(NCc3cccnc3)nc21", "note": "[Example 40, {6-Chloro-7-methyl-2-[(pyridin-3-ylmethyl)-amino]-7H-pyrrolo[2,3-d]pyrimidin-4-yl}-thiophen-2-yl-methanone]", "pIC50": "< 6.30"}]}]}
